The text below walks through data of patent publication US11078216B2, “Bisaryl amides as NRF2 activators” (GLAXOSMITHKLINE INTELLECTUAL PROPERTY DEVELOPMENT LIMITED, priority 2016, dated 2021).

pEC50: −log10 of the molar value. Structures can show the parent of a compound that is named as a salt. Where two headings read alike, the source gives them in different places.

This experiment deals with NRF2 (NQO1 activity as marker for NRF2 activation), BEAS-2B cells. The experiment can be described thus: BEAS-2B NQO1 MTT Assay. In kind it is cell-based. The conditions noted are these: EC50 of NQO1 specific activity induction, 48 hours incubation, read-out: EC50. In a few lines:
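BEAS-2B cells were exposed to compound for 48 h at 37° C, 5% CO2, then lysed. NQO1 activity was measured kinetically by MTT reduction at 570 nm over 30 minutes; EC50 came from 3-parameter fit of Delta OD/min versus log concentration.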

Take `CCn1cc(CO[C@H](c2ccc(C)c(CN3C[C@@H](C)Cc4ccccc4S3(=O)=O)c2)C(C)(C)C(=O)Nc2cccnc2)nn1` [Example 49, (R)-3-((1-Ethyl-1H-1,2,3-triazol-4-yl)methoxy)-2,2-dimethyl-3-(4-methyl-3-(((S)-4-methyl-1,1-dioxido-4,5-dihydrobenzo[f][1,2]thiazepin-2(3H)-yl)methyl)phenyl)-N-(pyridin-3-yl)propanamide, Formic acid salt]: the pEC50 (commonly −log10 of the EC50, conventionally taken in molar units) (Homo sapiens) is 6.00 to 7.00. For `CCCn1cc(CO[C@H](c2ccc(C)c(CN3C[C@@H](C)Cc4ncccc4S3(=O)=O)c2)C(C)(C)C(=O)Nc2cccnc2)nn1` [Example 50, (R)-2,2-Dimethyl-3-(4-methyl-3-(((S)-4-methyl-1,1-dioxido-4,5-dihydropyrido[2,3-f][1,2]thiazepin-2(3H)-yl)methyl)phenyl)-3-((1-propyl-1H-1,2,3-triazol-4-yl)methoxy)-N-(pyridin-3-yl)propanamide, Formic acid salt], the negative-log EC50 (pEC50) (Homo sapiens) was 6.00 to 7.00. In the case of `CCCn1cc(CO[C@H](c2ccc(C)c(CN3C[C@@H](C)Cc4ccccc4S3(=O)=O)c2)C(C)(C)C(=O)Nc2cccnc2)nn1` [Example 51, (R)-2,2-Dimethyl-3-(4-methyl-3-(((S)-4-methyl-1,1-dioxido-4,5-dihydrobenzo[f][1,2]thiazepin-2(3H)-yl(methyl)phenyl)-3-((1-propyl-1H-1,2,3-triazol-4-yl)methoxy)-N-(pyridin-3-yl)propanamide, Formic acid salt], the pEC50 was 6.00 to 7.00. With `CCCn1cc(CO[C@H](c2ccc(C)c(CN3C[C@@H](C)Cc4ccc(C(F)(F)F)cc4S3(=O)=O)c2)C(C)(C)C(=O)Nc2cccnc2)nn1` [Example 52, (R)-2,2-Dimethyl-3-(4-methyl-3-(((S)-4-methyl-1,1-dioxido-8-(trifluoromethyl)-4,5-dihydrobenzo[f][1,2]thiazepin-2(3H)-yl)methyl)phenyl)-3-((1-propyl-1H-1,2,3-triazol-4-yl)methoxy)-N-(pyridin-3-yl)propanamide], the pEC50 (Homo sapiens) was 8.00 to 9.00.

As for `CCCn1cc(CO[C@H](c2ccc(C)c(CN3CC(C)(C)Oc4ccccc4S3(=O)=O)c2)C(C)(C)C(=O)Nc2cccnc2)nn1` [Example 53, (R)-3-(3-((4,4-Dimethyl-1,1-dioxido-3,4-dihydro-2H-benzo[b][1,4,5]oxathiazepin-2-yl)methyl)-4-methylphenyl)-2,2-dimethyl-3-((1-propyl-1H-1,2,3-triazol-4-yl)methoxy)-N-(pyridin-3-yl)propanamide], the pEC50 (Homo sapiens) is 6.00 to 7.00. For `CCCn1cc(CO[C@H](c2ccc(C)c(CN3C[C@@H](C)Cc4ccncc4S3(=O)=O)c2)C(C)(C)C(=O)Nc2cccnc2)nn1` [Example 54], the pEC50 is 7.00 to 8.00. As for `CCCn1cc(CO[C@H](c2ccc(C)c(CN3C[C@@H](CC)Oc4ccccc4S3(=O)=O)c2)C(C)(C)C(=O)Nc2cccnc2)nn1` [Example 55, (R)-3-(3-(((R)-4-Ethyl-1,1-dioxido-3,4-dihydro-2H-benzo[b][1,4,5]oxathiazepin-2-yl)methyl)-4-methylphenyl)-2,2-dimethyl-3-((1-propyl-1H-1,2,3-triazol-4-yl)methoxy)-N-(pyridin-3-yl)propanamide], the negative logarithm of the EC50 (pEC50) (Homo sapiens) is 6.00 to 7.00. As for `CCCn1cc(CO[C@H](c2ccc(C)c(CN3C[C@@H](C)Cc4ccc(F)cc4S3(=O)=O)c2)C(C)(C)C(=O)Nc2cccnc2)nn1` [Example 56, (R)-3-(3-(((S)-8-Fluoro-4-methyl-1,1-dioxido-4,5-dihydrobenzo[f][1,2]thiazepin-2(3H)-yl)methyl)-4-methylphenyl)-2,2-dimethyl-3-((1-propyl-1H-1,2,3-triazol-4-yl)methoxy)-N-(pyridin-3-yl)propanamide], for the setting “Homo sapiens”, the negative logarithm of the EC50 (pEC50) is 6.00 to 7.00. In the case of `CC[C@H]1Cc2ccccc2S(=O)(=O)N(Cc2cc([C@H](OCc3cn(CC)nn3)C(C)(C)C(=O)Nc3cccnc3)ccc2C)C1` [Example 57, (S)-3-(3-(((S)-4-Ethyl-1,1-dioxido-4,5-dihydrobenzo[f][1,2]thiazepin-2(3H)-yl)methyl)-4-methylphenyl)-3-((1-ethyl-1H-1,2,3-triazol-4-yl)methoxy)-2,2-dimethyl-N-(pyridin-3-yl)propanamide], where the note is “Homo sapiens”, the pEC50 was 7.00 to 8.00.
